The values below come from ChEMBL document CHEMBL4673392, “Discovery of a Novel Series of Potent and Selective Alkynylthiazole-Derived PI3Kγ Inhibitors” (ACS Med Chem Lett, 2021).

Bounds are passed on as bounds.

Serine/threonine-protein kinase PLK1, sequence (P53350 whole entry): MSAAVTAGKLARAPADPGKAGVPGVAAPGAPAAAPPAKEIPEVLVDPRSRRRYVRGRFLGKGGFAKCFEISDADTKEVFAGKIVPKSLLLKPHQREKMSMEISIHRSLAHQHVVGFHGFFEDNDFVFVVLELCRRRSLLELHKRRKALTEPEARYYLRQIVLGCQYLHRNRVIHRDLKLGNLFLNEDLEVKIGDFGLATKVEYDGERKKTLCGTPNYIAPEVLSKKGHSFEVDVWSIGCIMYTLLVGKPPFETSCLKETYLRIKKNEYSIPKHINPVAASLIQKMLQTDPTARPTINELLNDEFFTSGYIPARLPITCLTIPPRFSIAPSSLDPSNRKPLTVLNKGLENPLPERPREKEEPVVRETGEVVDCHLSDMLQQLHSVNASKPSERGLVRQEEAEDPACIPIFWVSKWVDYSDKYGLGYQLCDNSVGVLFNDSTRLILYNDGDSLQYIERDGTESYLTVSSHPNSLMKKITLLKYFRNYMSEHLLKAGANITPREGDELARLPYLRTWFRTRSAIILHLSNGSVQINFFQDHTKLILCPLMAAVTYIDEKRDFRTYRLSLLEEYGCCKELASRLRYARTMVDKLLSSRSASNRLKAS
Mitogen-activated protein kinase 10, sequence (P53779 whole entry): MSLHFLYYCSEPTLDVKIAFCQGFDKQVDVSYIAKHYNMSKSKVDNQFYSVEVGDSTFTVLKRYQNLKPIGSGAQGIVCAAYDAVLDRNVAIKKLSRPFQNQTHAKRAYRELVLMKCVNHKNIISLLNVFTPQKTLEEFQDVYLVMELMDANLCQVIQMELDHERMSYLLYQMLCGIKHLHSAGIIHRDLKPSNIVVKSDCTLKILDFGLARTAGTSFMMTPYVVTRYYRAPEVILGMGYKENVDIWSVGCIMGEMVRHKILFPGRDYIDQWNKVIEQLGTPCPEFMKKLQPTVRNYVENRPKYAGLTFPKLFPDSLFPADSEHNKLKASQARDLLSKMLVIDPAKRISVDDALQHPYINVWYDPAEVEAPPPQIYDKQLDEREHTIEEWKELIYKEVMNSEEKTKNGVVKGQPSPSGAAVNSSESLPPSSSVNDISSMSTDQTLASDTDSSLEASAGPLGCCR

One test deals with Phosphatidylinositol 4,5-bisphosphate 3-kinase catalytic subunit alpha isoform (Homo sapiens, UniProt P42336). Kind of test: Inhibition of PI3Kalpha (unknown origin) using PIP2 as substrate measured after 15 mins in presence of [33P]-ATP by liquid scintillation counting method.
Details: not given
As to `Cc1nc(NC(=O)NCCc2cn(CC(F)F)cn2)sc1C#Cc1cccnc1`, the Ki was 0.252 µM.

The target in another test is T1, Receptor-type tyrosine-protein kinase FLT3 (Homo sapiens, UniProt P36888).
T1 sequence (P36888 whole entry): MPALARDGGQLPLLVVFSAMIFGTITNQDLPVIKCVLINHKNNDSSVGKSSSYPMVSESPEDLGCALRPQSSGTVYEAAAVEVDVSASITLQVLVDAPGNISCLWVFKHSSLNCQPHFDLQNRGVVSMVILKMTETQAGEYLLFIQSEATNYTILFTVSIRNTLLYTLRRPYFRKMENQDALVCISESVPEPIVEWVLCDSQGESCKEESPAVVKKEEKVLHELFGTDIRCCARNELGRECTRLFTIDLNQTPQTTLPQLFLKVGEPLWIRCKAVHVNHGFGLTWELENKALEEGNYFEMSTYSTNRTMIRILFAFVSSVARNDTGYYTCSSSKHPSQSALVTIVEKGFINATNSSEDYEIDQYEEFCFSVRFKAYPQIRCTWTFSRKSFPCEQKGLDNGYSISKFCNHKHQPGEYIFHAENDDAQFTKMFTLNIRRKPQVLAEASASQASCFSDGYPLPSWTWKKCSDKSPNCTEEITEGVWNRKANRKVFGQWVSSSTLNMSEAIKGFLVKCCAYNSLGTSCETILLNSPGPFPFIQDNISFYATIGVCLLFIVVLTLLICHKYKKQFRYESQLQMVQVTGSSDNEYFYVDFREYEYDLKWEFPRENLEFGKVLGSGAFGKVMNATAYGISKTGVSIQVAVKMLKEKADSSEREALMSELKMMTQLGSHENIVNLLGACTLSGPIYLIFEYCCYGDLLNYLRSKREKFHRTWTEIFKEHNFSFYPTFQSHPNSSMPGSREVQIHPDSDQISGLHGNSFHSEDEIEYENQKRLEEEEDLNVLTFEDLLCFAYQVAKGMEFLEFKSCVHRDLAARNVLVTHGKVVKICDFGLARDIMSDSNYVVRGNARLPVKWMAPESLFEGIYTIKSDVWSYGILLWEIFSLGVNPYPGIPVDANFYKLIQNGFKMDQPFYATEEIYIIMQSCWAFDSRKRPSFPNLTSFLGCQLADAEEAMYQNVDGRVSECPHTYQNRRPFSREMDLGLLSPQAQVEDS
The test can be described thus: Inhibition of FLT3 (unknown origin).
Details: not given
For `Cc1nc(NC(=O)NCCOCC2CC2)sc1C#Cc1ccc2cncn2c1`, the Ki is over 4 µM.

Turning to `COc1cc(C#Cc2sc(NC(=O)NCCOCC3CC3)nc2C)cnc1OC`, the Ki is over 4 µM.

The compound `Cc1nc(NC(=O)NCCc2cn(CC(F)F)cn2)sc1C#Cc1cccnc1` showed a Ki of over 4 µM.

The next test deals with T2, Phosphatidylinositol 4,5-bisphosphate 3-kinase catalytic subunit gamma isoform (Homo sapiens, UniProt P48736). The test can be described thus: Inhibition of PI3Kgamma (unknown origin) using PIP2 as substrate measured after 15 mins in presence of [33P]-ATP by liquid scintillation counting method.
T2 sequence (P48736 whole entry, canonical isoform): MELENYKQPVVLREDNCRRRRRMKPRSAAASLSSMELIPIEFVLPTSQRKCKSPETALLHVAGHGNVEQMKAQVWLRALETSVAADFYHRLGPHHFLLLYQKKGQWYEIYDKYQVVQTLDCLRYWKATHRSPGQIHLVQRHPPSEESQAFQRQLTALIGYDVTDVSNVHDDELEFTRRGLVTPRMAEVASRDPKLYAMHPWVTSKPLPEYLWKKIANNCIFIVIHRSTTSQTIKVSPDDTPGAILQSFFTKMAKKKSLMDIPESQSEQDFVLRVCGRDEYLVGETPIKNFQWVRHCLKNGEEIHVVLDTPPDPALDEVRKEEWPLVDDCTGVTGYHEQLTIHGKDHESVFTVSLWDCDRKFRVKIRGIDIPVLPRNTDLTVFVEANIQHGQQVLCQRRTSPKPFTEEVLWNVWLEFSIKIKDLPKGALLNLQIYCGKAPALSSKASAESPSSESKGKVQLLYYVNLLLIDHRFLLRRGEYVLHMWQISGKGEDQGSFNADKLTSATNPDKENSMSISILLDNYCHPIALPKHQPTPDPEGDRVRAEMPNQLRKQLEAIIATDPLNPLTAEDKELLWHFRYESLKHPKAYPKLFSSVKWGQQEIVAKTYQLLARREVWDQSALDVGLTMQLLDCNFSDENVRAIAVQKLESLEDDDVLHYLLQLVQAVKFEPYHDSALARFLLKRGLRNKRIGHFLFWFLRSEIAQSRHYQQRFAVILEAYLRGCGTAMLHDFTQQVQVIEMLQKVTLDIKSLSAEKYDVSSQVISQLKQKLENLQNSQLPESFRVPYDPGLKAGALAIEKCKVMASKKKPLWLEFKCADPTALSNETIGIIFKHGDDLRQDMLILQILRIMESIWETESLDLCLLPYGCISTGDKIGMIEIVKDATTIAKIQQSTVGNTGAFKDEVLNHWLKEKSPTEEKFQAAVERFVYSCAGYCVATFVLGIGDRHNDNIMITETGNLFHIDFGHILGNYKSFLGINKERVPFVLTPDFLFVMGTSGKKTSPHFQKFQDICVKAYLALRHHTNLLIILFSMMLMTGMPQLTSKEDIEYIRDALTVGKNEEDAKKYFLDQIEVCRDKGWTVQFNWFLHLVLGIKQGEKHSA
Details: not given
For the compound `Cc1nc(NC(=O)NCCOCC2CC2)sc1C#Cc1cnc2ncccc2c1`, the inhibitory constant (Ki) came to 0.045 µM.

For `Cc1nc(NC(=O)NCCOCC2CC2)sc1C#Cc1ccnc(F)c1`, the Ki was found to be 0.006 µM.

As to `COCCNC(=O)Nc1nc(C)c(C#Cc2ccncc2)s1`, the Ki worked out at 0.043 µM.

On to `COc1cc(C#Cc2sc(NC(=O)NCCOCC3CC3)nc2C)cnc1OC`, for which the inhibitory constant (Ki) amounted to 0.003 µM.

For the compound `CCCOCCNC(=O)Nc1nc(C)c(C#Cc2ccncc2)s1`, the Ki came out at 0.006 µM.

Turning to `Cc1nc(NC(=O)NCCOCC2CC2)sc1C#Cc1ccnc2ccccc12`, the Ki is 0.006 µM.

As to `CCOCCNC(=O)Nc1nc(C)c(C#Cc2ccncc2)s1`, the Ki amounted to 0.042 µM.

For `Cc1nc(NC(=O)NCCc2cn(CC(F)F)cn2)sc1C#Cc1cccnc1`, the Ki came to 0.004 µM.

In a further test the target is Tyrosine-protein kinase SYK (Homo sapiens, UniProt P43405). Kind of test: Inhibition of SYK (unknown origin).
Details: not given
In turn, `Cc1nc(NC(=O)NCCOCC2CC2)sc1C#Cc1ccc2cncn2c1` showed a Ki of over 4 µM.

On to `COc1cc(C#Cc2sc(NC(=O)NCCOCC3CC3)nc2C)cnc1OC`, for which the Ki was over 4 µM.

For the compound `Cc1nc(NC(=O)NCCc2cn(CC(F)F)cn2)sc1C#Cc1cccnc1`, the Ki was over 4 µM.

The target of another test is Tyrosine-protein kinase JAK2 (Homo sapiens, UniProt O60674). The test can be described thus: Inhibition of JAK2 (unknown origin).
Details: not given
`Cc1nc(NC(=O)NCCOCC2CC2)sc1C#Cc1ccc2cncn2c1` showed a Ki of over 4 µM.

`COc1cc(C#Cc2sc(NC(=O)NCCOCC3CC3)nc2C)cnc1OC` yielded a Ki of over 4 µM.

The compound `Cc1nc(NC(=O)NCCc2cn(CC(F)F)cn2)sc1C#Cc1cccnc1` displayed a Ki of over 4 µM.

In another test the target is T3, Interleukin-1 receptor-associated kinase 4 (Homo sapiens, UniProt Q9NWZ3).
T3 sequence (Q9NWZ3 whole entry): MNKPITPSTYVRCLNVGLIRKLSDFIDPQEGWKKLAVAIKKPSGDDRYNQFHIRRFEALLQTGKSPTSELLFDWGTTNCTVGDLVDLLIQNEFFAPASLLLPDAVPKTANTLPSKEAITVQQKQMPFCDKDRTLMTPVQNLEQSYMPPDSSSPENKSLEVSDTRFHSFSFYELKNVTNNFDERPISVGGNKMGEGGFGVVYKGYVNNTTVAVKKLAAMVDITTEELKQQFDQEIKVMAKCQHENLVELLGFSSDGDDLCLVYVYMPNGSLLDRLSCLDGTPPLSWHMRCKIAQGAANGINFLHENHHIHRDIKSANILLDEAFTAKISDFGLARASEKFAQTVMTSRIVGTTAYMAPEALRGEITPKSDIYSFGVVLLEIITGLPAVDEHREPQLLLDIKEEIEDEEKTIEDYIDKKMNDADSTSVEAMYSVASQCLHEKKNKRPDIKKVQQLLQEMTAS
Kind of test: Inhibition of IRAK4 (unknown origin).
Details: not given
Take `Cc1nc(NC(=O)NCCOCC2CC2)sc1C#Cc1ccc2cncn2c1`: the Ki was over 4 µM.

As to `COc1cc(C#Cc2sc(NC(=O)NCCOCC3CC3)nc2C)cnc1OC`, the Ki was over 4 µM.

`Cc1nc(NC(=O)NCCc2cn(CC(F)F)cn2)sc1C#Cc1cccnc1` registered an inhibition constant Ki of over 4 µM.

A further test addresses Serine/threonine-protein kinase PLK1 (Homo sapiens, UniProt P53350). Kind of test: Inhibition of PLK1 (unknown origin).
Details: not given
As for `Cc1nc(NC(=O)NCCOCC2CC2)sc1C#Cc1ccc2cncn2c1`, the Ki was over 4 µM.

For the compound `COc1cc(C#Cc2sc(NC(=O)NCCOCC3CC3)nc2C)cnc1OC`, the Ki was over 4 µM.

On to `Cc1nc(NC(=O)NCCc2cn(CC(F)F)cn2)sc1C#Cc1cccnc1`, for which the Ki was over 4 µM.

The target of another test is Rho-associated protein kinase 1 (Homo sapiens, UniProt Q13464). Kind of test: Inhibition of ROCK1 (unknown origin).
Rho-associated protein kinase 1, sequence (Q13464 whole entry): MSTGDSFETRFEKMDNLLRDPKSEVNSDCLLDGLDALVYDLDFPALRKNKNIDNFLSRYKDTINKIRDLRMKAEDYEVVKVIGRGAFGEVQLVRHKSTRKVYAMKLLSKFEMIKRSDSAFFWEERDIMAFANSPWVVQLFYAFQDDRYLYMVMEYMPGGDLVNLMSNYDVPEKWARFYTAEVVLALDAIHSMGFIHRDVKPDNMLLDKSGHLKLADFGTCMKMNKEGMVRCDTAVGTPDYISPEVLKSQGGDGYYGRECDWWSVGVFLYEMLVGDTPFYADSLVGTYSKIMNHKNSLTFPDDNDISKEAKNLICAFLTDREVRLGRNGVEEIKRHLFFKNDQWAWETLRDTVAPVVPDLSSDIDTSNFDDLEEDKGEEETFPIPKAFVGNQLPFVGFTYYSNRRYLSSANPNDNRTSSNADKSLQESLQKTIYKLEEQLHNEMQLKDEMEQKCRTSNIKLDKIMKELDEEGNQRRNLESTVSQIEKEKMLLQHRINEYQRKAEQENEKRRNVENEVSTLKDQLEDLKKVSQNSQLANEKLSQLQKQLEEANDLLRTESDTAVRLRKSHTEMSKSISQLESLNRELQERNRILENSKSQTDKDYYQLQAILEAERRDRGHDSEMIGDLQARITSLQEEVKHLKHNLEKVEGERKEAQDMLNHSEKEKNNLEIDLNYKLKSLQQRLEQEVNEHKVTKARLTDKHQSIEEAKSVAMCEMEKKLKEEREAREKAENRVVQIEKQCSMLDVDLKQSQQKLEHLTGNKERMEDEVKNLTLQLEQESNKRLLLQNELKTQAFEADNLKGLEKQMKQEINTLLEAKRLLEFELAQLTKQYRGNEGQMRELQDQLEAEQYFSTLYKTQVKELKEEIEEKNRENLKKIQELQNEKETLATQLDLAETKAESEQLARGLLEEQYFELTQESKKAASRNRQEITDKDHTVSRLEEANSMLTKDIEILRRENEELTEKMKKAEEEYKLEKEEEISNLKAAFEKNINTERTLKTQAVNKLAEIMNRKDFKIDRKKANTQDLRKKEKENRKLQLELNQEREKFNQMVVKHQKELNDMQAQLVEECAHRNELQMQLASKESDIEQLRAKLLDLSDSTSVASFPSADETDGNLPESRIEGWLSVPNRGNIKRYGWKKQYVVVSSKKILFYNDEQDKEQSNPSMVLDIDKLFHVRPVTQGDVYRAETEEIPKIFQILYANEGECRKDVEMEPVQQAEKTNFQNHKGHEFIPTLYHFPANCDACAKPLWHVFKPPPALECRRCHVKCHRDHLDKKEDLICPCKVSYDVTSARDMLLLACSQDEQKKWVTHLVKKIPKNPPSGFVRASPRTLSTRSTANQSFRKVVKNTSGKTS
Details: not given
Compound `Cc1nc(NC(=O)NCCOCC2CC2)sc1C#Cc1ccc2cncn2c1` registered a Ki of over 4 µM.

In turn, `COc1cc(C#Cc2sc(NC(=O)NCCOCC3CC3)nc2C)cnc1OC` gave a Ki of over 4 µM.

In turn, `Cc1nc(NC(=O)NCCc2cn(CC(F)F)cn2)sc1C#Cc1cccnc1` came in with a Ki of over 4 µM.

A further test relates to Mus musculus. The test can be described thus: Antiinflammatory activity against Balb/c mouse air pouch model assessed as decrease in IL-8 stimulated neutrophil recruitment in air pouch at 50 mg/kg, po treated for 1 hr prior to IL-8 administration and measured after 4 hrs by FACS analysis. It counts as functional. The note with it: time 5 hrs.
Turning to `COc1cc(C#Cc2sc(NC(=O)NCCOCC3CC3)nc2C)cnc1OC`, the inhibition in vivo at 50 mg/kg came to 85%.

The target in a further test is Vascular endothelial growth factor receptor 2 (Homo sapiens, UniProt P35968). The test can be described thus: Inhibition of KDR (unknown origin).
Vascular endothelial growth factor receptor 2, sequence (P35968 whole entry): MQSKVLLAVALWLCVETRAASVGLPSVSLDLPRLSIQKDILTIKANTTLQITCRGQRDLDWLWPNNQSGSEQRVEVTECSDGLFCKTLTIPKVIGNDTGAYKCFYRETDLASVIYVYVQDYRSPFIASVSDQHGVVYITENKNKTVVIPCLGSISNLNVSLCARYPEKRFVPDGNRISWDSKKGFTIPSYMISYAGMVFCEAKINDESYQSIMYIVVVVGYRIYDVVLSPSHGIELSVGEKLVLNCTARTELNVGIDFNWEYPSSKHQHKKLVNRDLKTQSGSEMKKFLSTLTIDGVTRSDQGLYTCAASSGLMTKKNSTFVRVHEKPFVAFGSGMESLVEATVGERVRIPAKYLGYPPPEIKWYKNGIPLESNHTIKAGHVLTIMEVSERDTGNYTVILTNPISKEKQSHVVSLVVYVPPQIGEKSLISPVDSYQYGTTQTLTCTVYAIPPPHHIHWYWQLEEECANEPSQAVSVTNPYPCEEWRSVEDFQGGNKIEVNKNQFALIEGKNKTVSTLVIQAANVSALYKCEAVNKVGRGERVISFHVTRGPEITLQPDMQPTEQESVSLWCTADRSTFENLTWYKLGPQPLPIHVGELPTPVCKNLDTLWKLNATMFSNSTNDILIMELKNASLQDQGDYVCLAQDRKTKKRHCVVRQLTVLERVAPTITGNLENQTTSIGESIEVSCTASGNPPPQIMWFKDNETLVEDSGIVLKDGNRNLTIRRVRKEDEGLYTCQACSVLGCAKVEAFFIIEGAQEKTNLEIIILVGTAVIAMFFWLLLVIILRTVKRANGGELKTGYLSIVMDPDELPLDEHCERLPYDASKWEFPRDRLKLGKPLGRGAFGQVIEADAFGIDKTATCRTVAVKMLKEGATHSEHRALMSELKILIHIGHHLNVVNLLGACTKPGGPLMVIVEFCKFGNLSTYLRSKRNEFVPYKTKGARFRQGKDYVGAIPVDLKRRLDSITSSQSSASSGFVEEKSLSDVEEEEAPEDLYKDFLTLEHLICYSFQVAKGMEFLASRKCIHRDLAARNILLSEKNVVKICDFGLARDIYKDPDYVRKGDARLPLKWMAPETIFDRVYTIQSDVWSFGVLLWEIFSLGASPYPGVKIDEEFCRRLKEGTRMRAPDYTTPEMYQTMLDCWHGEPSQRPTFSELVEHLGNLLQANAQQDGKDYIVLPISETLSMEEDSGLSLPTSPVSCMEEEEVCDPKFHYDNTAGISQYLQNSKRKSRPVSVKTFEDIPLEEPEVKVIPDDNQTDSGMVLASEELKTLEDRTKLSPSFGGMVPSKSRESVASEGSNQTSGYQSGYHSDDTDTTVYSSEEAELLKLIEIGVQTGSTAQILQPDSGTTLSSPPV
Details: not given
Compound `Cc1nc(NC(=O)NCCOCC2CC2)sc1C#Cc1ccc2cncn2c1` yielded a Ki of over 4 µM.

`COc1cc(C#Cc2sc(NC(=O)NCCOCC3CC3)nc2C)cnc1OC`: the Ki is over 4 µM.

`Cc1nc(NC(=O)NCCc2cn(CC(F)F)cn2)sc1C#Cc1cccnc1` gave a Ki of over 4 µM.

The target of the next test is T2, Phosphatidylinositol 4,5-bisphosphate 3-kinase catalytic subunit gamma isoform. The test can be described thus: Inhibition of PI3Kgamma in human THP-1 cells assessed as reduction in Akt phosphorylation at Ser473 residue. It counts as cell-based.
Details: not given
On to `Cc1nc(NC(=O)NCCOCC2CC2)sc1C#Cc1cnc2ncccc2c1`, for which the IC50 is over 10 µM.

Take `Cc1nc(NC(=O)NCCOCC2CC2)sc1C#Cc1ccnc(F)c1`: the IC50 was found to be 0.49 µM.

Regarding `COCCNC(=O)Nc1nc(C)c(C#Cc2ccncc2)s1`, the IC50 came to 0.76 µM.

Turning to `COc1cc(C#Cc2sc(NC(=O)NCCOCC3CC3)nc2C)cnc1OC`, the 50% inhibitory concentration (IC50) stood at 0.18 µM.

Consider `CCCOCCNC(=O)Nc1nc(C)c(C#Cc2ccncc2)s1`, for which the half-maximal inhibitory concentration (IC50) is 0.23 µM.

With `Cc1nc(NC(=O)NCCOCC2CC2)sc1C#Cc1ccnc2ccccc12`, the IC50 is 0.29 µM.

On to `CCOCCNC(=O)Nc1nc(C)c(C#Cc2ccncc2)s1`, for which the IC50 amounted to 0.56 µM.

`Cc1nc(NC(=O)NCCc2cn(CC(F)F)cn2)sc1C#Cc1cccnc1`: the IC50 came out at 0.13 µM.

The next test concerns the target Mitogen-activated protein kinase 10 (Homo sapiens, UniProt P53779). Kind of test: Inhibition of JNK3 (unknown origin).
Details: not given
For `Cc1nc(NC(=O)NCCOCC2CC2)sc1C#Cc1ccc2cncn2c1`, the Ki is over 4 µM.

On to `COc1cc(C#Cc2sc(NC(=O)NCCOCC3CC3)nc2C)cnc1OC`, for which the Ki was over 4 µM.

Regarding `Cc1nc(NC(=O)NCCc2cn(CC(F)F)cn2)sc1C#Cc1cccnc1`, the inhibition constant Ki was over 4 µM.

For another test, the target named is Cyclin-dependent kinase 2 (Homo sapiens, UniProt P24941). The test can be described thus: Inhibition of CDK2 (unknown origin).
Details: not given
For the compound `Cc1nc(NC(=O)NCCOCC2CC2)sc1C#Cc1ccc2cncn2c1`, the Ki was over 4 µM.

`COc1cc(C#Cc2sc(NC(=O)NCCOCC3CC3)nc2C)cnc1OC` returned a Ki of over 4 µM.

In turn, `Cc1nc(NC(=O)NCCc2cn(CC(F)F)cn2)sc1C#Cc1cccnc1` showed an inhibition constant (Ki) of over 4 µM.

For another test, the target named is Proto-oncogene tyrosine-protein kinase Src (Homo sapiens, UniProt P12931). Kind of test: Inhibition of SRC (unknown origin).
Details: not given
In turn, `Cc1nc(NC(=O)NCCOCC2CC2)sc1C#Cc1ccc2cncn2c1` had a Ki of over 4 µM.

`COc1cc(C#Cc2sc(NC(=O)NCCOCC3CC3)nc2C)cnc1OC` displayed an inhibition constant (Ki) of over 4 µM.

Take `Cc1nc(NC(=O)NCCc2cn(CC(F)F)cn2)sc1C#Cc1cccnc1`: the inhibitory constant (Ki) is over 4 µM.

The target of the next test is Glycogen synthase kinase-3 beta (Homo sapiens, UniProt P49841). The test can be described thus: Inhibition of GSK3B (unknown origin).
Details: not given
As for `Cc1nc(NC(=O)NCCOCC2CC2)sc1C#Cc1ccc2cncn2c1`, the Ki was over 4 µM.

On to `COc1cc(C#Cc2sc(NC(=O)NCCOCC3CC3)nc2C)cnc1OC`, for which the Ki is over 4 µM.

In the case of `Cc1nc(NC(=O)NCCc2cn(CC(F)F)cn2)sc1C#Cc1cccnc1`, the Ki is over 4 µM.

The Ki is a dissociation constant, usually derived from enzyme kinetics or from competition with a known ligand. As a reminder, the inhibition in vivo is the percentage by which the read-out fell short of the control. One may read the IC50 as the concentration at which inhibition is half-maximal.
